Legend:
sedge, umbrella = test: Test B flooded paddy test; assay type: in vivo, Cyperus difformis; details: 250 g ai/ha, Flood, 13 days, 0 to 100 scale (0 no effect, 100 complete control)
Method in brief: (§1)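 Compound is introduced into paddy water covering soil by 3 cm, treating plants that have reached two leaves. Pots are kept flooded at that depth under greenhouse conditions. Assessment at 13 days gives a 0–100 visual control score.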

blackgrass = test: Test A postemergence; assay type: in vivo, Alopecurus myosuroides
Method in brief: (§2)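 Loam/sand soil; pre-em directed soil spray at planting, post-em spray at 1–2 leaf (2–10 cm). Compound in non-phytotoxic solvent + surfactant. Greenhouse 10 d; visual injury vs untreated, 0 = no effect, 100 = complete control.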

pigweed, palmer [1] = test: Test A postemergence; assay type: in vivo, Amaranthus palmeri; details: 500 g ai/ha, postemergence, 10 days, visual injury, 0 to 100 scale (0 no effect, 100 complete control)
Method in brief: as §2

kochia [2] = test: Test A postemergence; assay type: in vivo, Bassia scoparia; details: postemergence, 10 days, visual injury, 0 to 100 scale (0 no effect, 100 complete control)
Method in brief: as §2

ducksalad = test: Test B flooded paddy test; assay type: in vivo, Heteranthera limosa; details: 250 g ai/ha, Flood, 13 days, 0 to 100 scale (0 no effect, 100 complete control)
Method in brief: as §1

corn [3] = test: Test A postemergence; assay type: in vivo, Zea mays; details: postemergence, 10 days, visual injury, 0 to 100 scale (0 no effect, 100 complete control)
From the text: (§3) Seeds of plant species selected from barnyardgrass (Echinochloa crusgalli), blackgrass (Alopecurus myosuroides), corn (Zea mays), foxtail, giant (giant foxtail, Setaria faberi), goosegrass (Eleusine indica), kochia (Bassia scoparia), oat, wild (wild oat, Avena fatua), pigweed, palmer (palmer amaranth, palmer pigweed, Amaranthus palmeri), Pigweed, Redroot (redroot pigweed, Amaranthus retroflexus), ragweed (common ragweed, Ambrosia artemisiifolia), ryegrass, Italian (italian ryegrass, Lolium multiflorum), soybean (Glycine max), and wheat (Triticum aestivum) were planted into a blend of loam soil and sand and treated preemergence with a directed soil spray using test chemicals formulated in a non-phytotoxic solvent mixture which included a surfactant. At the same time, plants selected from these crops and weed species and also galium (catchweed bedstraw, Galium aparine) and horseweed (Erigeron canadensis) were planted in pots containing the same blend of loam soil and sand and treated with postemergence applications of test chemicals formulated in the same manner. Plants ranged in height from 2 to 10 cm and were in the one- to two-leaf stage for the postemergence treatment. Treated plants and untreated controls were maintained in a greenhouse for 10 days, after which time all treated plants were compared to untreated controls and visually evaluated for injury. Plant response ratings, summarized in Table A, are based on a 0 to 100 scale where 0 is no effect and 100 is complete control. A dash (-) response means no test result.

corn [4] = test: Test A preemergence; assay type: in vivo, Zea mays
From the text: as §3

ryegrass, Italian [5] = test: Test A preemergence; assay type: in vivo, Lolium multiflorum
Method in brief: as §2

ragweed [6] = test: Test A preemergence; assay type: in vivo, Ambrosia artemisiifolia
Method in brief: as §2

barnyardgrass = test: Test B flooded paddy test; assay type: in vivo, Echinochloa crus-galli; details: 250 g ai/ha, Flood, 13 days, 0 to 100 scale (0 no effect, 100 complete control)
Method in brief: as §1

goosegrass [7] = test: Test A preemergence; assay type: in vivo, Eleusine indica
Method in brief: as §2

pigweed, palmer [8] = test: Test A preemergence; assay type: in vivo, Amaranthus palmeri
Method in brief: as §2

horseweed = test: Test A postemergence; assay type: in vivo, Erigeron canadensis; details: postemergence, 10 days, visual injury, 0 to 100 scale (0 no effect, 100 complete control)
Method in brief: as §2

ryegrass, Italian [9] = test: Test A postemergence; assay type: in vivo, Lolium multiflorum; details: 500 g ai/ha, postemergence, 10 days, visual injury, 0 to 100 scale (0 no effect, 100 complete control)
Method in brief: as §2

foxtail, giant [10] = test: Test A postemergence; assay type: in vivo, Setaria faberi; details: postemergence, 10 days, visual injury, 0 to 100 scale (0 no effect, 100 complete control)
Method in brief: as §2

goosegrass [11] = test: Test A postemergence; assay type: in vivo, Eleusine indica; details: postemergence, 10 days, visual injury, 0 to 100 scale (0 no effect, 100 complete control)
Method in brief: as §2

oat, wild = test: Test A postemergence; assay type: in vivo, Avena fatua; details: 500 g ai/ha, postemergence, 10 days, visual injury, 0 to 100 scale (0 no effect, 100 complete control)
From the text: as §3

foxtail, giant [12] = test: Test A preemergence; assay type: in vivo, Setaria faberi
Method in brief: as §2

wheat [13] = test: Test A postemergence; assay type: in vivo, Triticum aestivum; details: 500 g ai/ha, postemergence, 10 days, visual injury, 0 to 100 scale (0 no effect, 100 complete control)
From the text: as §3

soybean [14] = test: Test A postemergence; assay type: in vivo, Glycine max; details: 500 g ai/ha, postemergence, 10 days, visual injury, 0 to 100 scale (0 no effect, 100 complete control)
From the text: as §3

wheat [15] = test: Test A preemergence; assay type: in vivo, Triticum aestivum
From the text: as §3

soybean [16] = test: Test A preemergence; assay type: in vivo, Glycine max
From the text: as §3

rice = test: Test B flooded paddy test; assay type: in vivo, Oryza sativa; details: 250 g ai/ha, Flood, 13 days, 0 to 100 scale (0 no effect, 100 complete control)
Method in brief: as §1

galium = test: Test A postemergence; assay type: in vivo, Galium aparine; details: postemergence, 10 days, visual injury, 0 to 100 scale (0 no effect, 100 complete control)
Method in brief: as §2

ragweed [17] = test: Test A postemergence; assay type: in vivo, Ambrosia artemisiifolia; details: 500 g ai/ha, postemergence, 10 days, visual injury, 0 to 100 scale (0 no effect, 100 complete control)
Method in brief: as §2

kochia [18] = test: Test A preemergence; assay type: in vivo, Bassia scoparia
Method in brief: as §2

[19] = 125 g ai/ha, postemergence, 10 days, visual injury, 0 to 100 scale (0 no effect, 100 complete control)
[20] = 500 g ai/ha, Postemergence, 0 to 100 scale
[21] = 125 g ai/ha, visual injury after 10 days, 0 to 100 scale, 0 is no effect, 100 is complete control
[22] = 500 g ai/ha, 0 to 100 scale (0 no effect, 100 complete control), 10 days

SMILES: CCc1ncn(-c2ccc(C)c(C(=O)N3C[C@H](C)Oc4c(Cl)cccc43)c2)n1 [Compound 75]
- Plant response rating, Sedge, Umbrella (sedge, umbrella): 98
- Plant response rating, Blackgrass (blackgrass; [19]): 90
- Plant response rating, Blackgrass (blackgrass; [20]): 90
- Plant response rating, Pigweed, Palmer (pigweed, palmer [1]): 100
- Plant response rating, Kochia (kochia [2]; 125 g ai/ha): 90
- Plant response rating, Kochia (kochia [2]; 500 g ai/ha): 90
- Plant response rating, Ducksalad (ducksalad): 70
- Plant response rating, Corn (corn [3]; 125 g ai/ha): 60
- Plant response rating, Corn (corn [3]; 500 g ai/ha): 90
- Plant response rating, Corn (corn [4]; [21]): 40
- Plant response rating, Corn (corn [4]; [22]): 50
- Plant response rating, Ryegrass, Italian (ryegrass, Italian [5]; [21]): 100
- Plant response rating, Ryegrass, Italian (ryegrass, Italian [5]; [22]): 100
- Plant response rating, Ragweed (ragweed [6]; [21]): 0
- Plant response rating, Ragweed (ragweed [6]; [22]): 100
- Plant response rating, Barnyardgrass (barnyardgrass): 50
- Plant response rating, Goosegrass (goosegrass [7]; [21]): 100
- Plant response rating, Goosegrass (goosegrass [7]; [22]): 100
- Plant response rating, Pigweed, Palmer (pigweed, palmer [8]; [21]): 100
- Plant response rating, Pigweed, Palmer (pigweed, palmer [8]; [22]): 100
- Plant response rating, Horseweed (horseweed; 125 g ai/ha): 50
- Plant response rating, Horseweed (horseweed; 500 g ai/ha): 70
- Plant response rating, Ryegrass, Italian (ryegrass, Italian [9]): 100
- Plant response rating, Foxtail, Giant (foxtail, giant [10]; 125 g ai/ha): 90
- Plant response rating, Foxtail, Giant (foxtail, giant [10]; 500 g ai/ha): 100
- Plant response rating, Goosegrass (goosegrass [11]; 125 g ai/ha): 70
- Plant response rating, Goosegrass (goosegrass [11]; 500 g ai/ha): 90
- Plant response rating, Oat, Wild (oat, wild): 90
- Plant response rating, Foxtail, Giant (foxtail, giant [12]; [21]): 100
- Plant response rating, Foxtail, Giant (foxtail, giant [12]; [22]): 100
- Plant response rating, Wheat (wheat [13]): 60
- Plant response rating, Soybean (soybean [14]): 100
- Plant response rating, Wheat (wheat [15]; [21]): 30
- Plant response rating, Wheat (wheat [15]; [22]): 80
- Plant response rating, Soybean (soybean [16]; [21]): 80
- Plant response rating, Soybean (soybean [16]; [22]): 100
- Plant response rating, Rice (rice): 10
- Plant response rating, Galium (galium; 125 g ai/ha): 100
- Plant response rating, Galium (galium; 500 g ai/ha): 100
- Plant response rating, Ragweed (ragweed [17]): 80
- Plant response rating, Kochia (kochia [18]; [21]): 80
- Plant response rating, Kochia (kochia [18]; [22]): 90

SMILES: Cc1cccc2c1O[C@@H](C)CN2C(=O)c1cccc(-n2cnc(C3CCC3)n2)c1 [Compound 77]
- Plant response rating, Sedge, Umbrella (sedge, umbrella): 85
- Plant response rating, Blackgrass (blackgrass; [19]): 50
- Plant response rating, Blackgrass (blackgrass; [20]): 70
- Plant response rating, Pigweed, Palmer (pigweed, palmer [1]): 70
- Plant response rating, Kochia (kochia [2]; 125 g ai/ha): 90
- Plant response rating, Kochia (kochia [2]; 500 g ai/ha): 90
- Plant response rating, Ducksalad (ducksalad): 20
- Plant response rating, Corn (corn [3]; 125 g ai/ha): 40
- Plant response rating, Corn (corn [3]; 500 g ai/ha): 80
- Plant response rating, Corn (corn [4]; [21]): 0
- Plant response rating, Corn (corn [4]; [22]): 30
- Plant response rating, Ryegrass, Italian (ryegrass, Italian [5]; [21]): 80
- Plant response rating, Ryegrass, Italian (ryegrass, Italian [5]; [22]): 100
- Plant response rating, Ragweed (ragweed [6]; [21]): 0
- Plant response rating, Ragweed (ragweed [6]; [22]): 0
- Plant response rating, Barnyardgrass (barnyardgrass): 0
- Plant response rating, Goosegrass (goosegrass [7]; [21]): 100
- Plant response rating, Goosegrass (goosegrass [7]; [22]): 100
- Plant response rating, Pigweed, Palmer (pigweed, palmer [8]; [21]): 90
- Plant response rating, Pigweed, Palmer (pigweed, palmer [8]; [22]): 100
- Plant response rating, Horseweed (horseweed; 125 g ai/ha): 50
- Plant response rating, Horseweed (horseweed; 500 g ai/ha): 50
- Plant response rating, Ryegrass, Italian (ryegrass, Italian [9]): 60
- Plant response rating, Foxtail, Giant (foxtail, giant [10]; 125 g ai/ha): 70
- Plant response rating, Foxtail, Giant (foxtail, giant [10]; 500 g ai/ha): 90
- Plant response rating, Goosegrass (goosegrass [11]; 125 g ai/ha): 20
- Plant response rating, Goosegrass (goosegrass [11]; 500 g ai/ha): 60
- Plant response rating, Oat, Wild (oat, wild): 10
- Plant response rating, Foxtail, Giant (foxtail, giant [12]; [21]): 90
- Plant response rating, Foxtail, Giant (foxtail, giant [12]; [22]): 100
- Plant response rating, Wheat (wheat [13]): 30
- Plant response rating, Soybean (soybean [14]): 100
- Plant response rating, Wheat (wheat [15]; [21]): 20
- Plant response rating, Wheat (wheat [15]; [22]): 50
- Plant response rating, Soybean (soybean [16]; [21]): 0
- Plant response rating, Soybean (soybean [16]; [22]): 50
- Plant response rating, Rice (rice): 0
- Plant response rating, Galium (galium; 125 g ai/ha): 100
- Plant response rating, Galium (galium; 500 g ai/ha): 100
- Plant response rating, Ragweed (ragweed [17]): 0
- Plant response rating, Kochia (kochia [18]; [21]): 90
- Plant response rating, Kochia (kochia [18]; [22]): 90

Source: patent US20260262643A1, “HERBICIDAL BENZOXAZINES” (FMC CORPORATION, priority 2022, published 2026)
